Laboratory results from ChEMBL document CHEMBL1150358, “Substituted benzyl-pyrimidines targeting thymidine monophosphate kinase of Mycobacterium tuberculosis: synthesis and in vitro anti-mycobacterial activity” (Bioorg Med Chem, 2008).
Converted amounts (≈) assume the structure as drawn. The source made the active and inactive calls. No cut-off for these calls is given here.

Test system: Mycobacterium tuberculosis
Assay: Antimicrobial activity against Mycobacterium bovis BCG 1173P2 after 8 days
Type: functional
Conditions: variant bovis BCG; for MIC50: 192 h

Compound | MIC50 [µg/mL] | Activity
Cc1cn(Cc2ccc(CCCCC(=O)O)cc2)c(=O)[nH]c1=O | 120 (≈ 379 µM) | –
O=C(O)CCCc1ccc(Cn2cc(Cl)c(=O)[nH]c2=O)cc1 | 45 (≈ 139 µM) | –
CCCCCCc1ccc(Cn2cc(Cl)c(=O)[nH]c2=O)cc1 | – | inactive
Cc1cn(Cc2ccc(CCCCCC(N)=O)cc2)c(=O)[nH]c1=O | 230 (≈ 698 µM) | –
NC(=O)CCCCCc1ccc(Cn2cc(Cl)c(=O)[nH]c2=O)cc1 | 288 (≈ 823 µM) | –
CCCCCCc1ccc(Cn2cc(Br)c(=O)[nH]c2=O)cc1 | – | inactive
Cc1cn([C@H]2C[C@H](O)[C@@H](CO)O2)c(=O)[nH]c1=O [DOXRIBTIMINE] | – | inactive
NC(=O)CCCc1ccc(Cn2cc(Br)c(=O)[nH]c2=O)cc1 | 55 (≈ 150 µM) | –
Cc1cn(Cc2ccc(CCCCC(N)=O)cc2)c(=O)[nH]c1=O | – | inactive
O=C(O)CCCc1ccc(Cn2cc(Br)c(=O)[nH]c2=O)cc1 | 50 (≈ 136 µM) | –
NC(=O)CCCCCc1ccc(Cn2cc(Br)c(=O)[nH]c2=O)cc1 | – | inactive
O=C(O)CCCCc1ccc(Cn2cc(Cl)c(=O)[nH]c2=O)cc1 | 120 (≈ 356 µM) | –
NC(=O)CCCc1ccc(Cn2cc(Cl)c(=O)[nH]c2=O)cc1 | 51 (≈ 159 µM) | –
CCCCc1ccc(Cn2cc(Cl)c(=O)[nH]c2=O)cc1 | – | inactive
COC(=O)CCCc1ccc(Cn2cc(Br)c(=O)[nH]c2=O)cc1 | 180 (≈ 472 µM) | –
O=c1[nH]c(=O)n([C@H]2C[C@H](O)[C@@H](CO)O2)cc1Br [BROXURIDINE] | – | inactive
O=C(O)CCCc1ccc(Cn2ccc(=O)[nH]c2=O)cc1 | 225 (≈ 780 µM) | –
O=C(O)CCCCCc1ccc(Cn2cc(Br)c(=O)[nH]c2=O)cc1 | 80 (≈ 202 µM) | –
COC(=O)CCCc1ccc(Cn2cc(Cl)c(=O)[nH]c2=O)cc1 | 260 (≈ 772 µM) | –
Cc1cn(Cc2ccc(CCCCO)cc2)c(=O)[nH]c1=O | 365 (≈ 1270 µM) | –
NC(=O)CCCCc1ccc(Cn2cc(Br)c(=O)[nH]c2=O)cc1 | – | inactive
Cc1cn(Cc2ccc(Br)cc2)c(=O)[nH]c1=O | – | inactive
O=C(O)CCCCCc1ccc(Cn2cc(Cl)c(=O)[nH]c2=O)cc1 | 125 (≈ 356 µM) | –
CCCCc1ccc(Cn2cc(Br)c(=O)[nH]c2=O)cc1 | – | inactive
O=C(O)CCCCc1ccc(Cn2cc(Br)c(=O)[nH]c2=O)cc1 | 100 (≈ 262 µM) | –
Cc1cn(Cc2ccc(C#CCCCC(=O)O)cc2)c(=O)[nH]c1=O | 150 (≈ 460 µM) | –
NC(=O)CCCc1ccc(Cn2ccc(=O)[nH]c2=O)cc1 | 270 (≈ 940 µM) | –
Cc1cn(Cc2ccc(CCCCCC(=O)O)cc2)c(=O)[nH]c1=O | 195 (≈ 590 µM) | –
